Test results taken from patent US20160022636A1, “PHYSIOLOGICAL LIGANDS FOR GPR139” (JANSSEN PHARMACEUTICA NV, priority 2013, published 2016).
Values joined by “and” are separate entries in the source; they are usually repeats but may differ in a detail not shown here. Equal values may be shown once. Read-outs that look alike come from different tables or passages of the source.

Experiments:
[1] = target: T1, GPR139 (Homo sapiens, UniProt Q6DWJ6); test: calcium mobilization assay (FLIPR), GPR139 transiently expressed in HEK293 cells; format: cell-based; design: expressed in transfected cells; host or cells: HEK293
T1 sequence (Q6DWJ6 1-353): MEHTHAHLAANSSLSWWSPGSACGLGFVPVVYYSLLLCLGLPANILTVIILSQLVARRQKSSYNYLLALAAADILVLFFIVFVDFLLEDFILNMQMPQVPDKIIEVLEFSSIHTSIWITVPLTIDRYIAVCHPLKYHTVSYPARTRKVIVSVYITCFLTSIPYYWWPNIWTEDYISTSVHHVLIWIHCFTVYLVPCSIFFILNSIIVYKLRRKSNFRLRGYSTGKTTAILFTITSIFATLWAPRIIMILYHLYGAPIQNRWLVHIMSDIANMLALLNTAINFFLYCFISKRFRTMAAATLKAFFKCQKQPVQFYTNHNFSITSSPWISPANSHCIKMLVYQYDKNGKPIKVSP
From the text: For these experiments human GPR139 was transiently expressed in HEK293 cells and calcium mobilization was stimulated using L-Trp, L-Phe or their derivatives.

[2] = system: GO2Q alone; test: GTPγS binding assay, control membranes from COS7 cells expressing GO2Q alone (Ct-GO2Q); format: biochemical; conditions: 1 mM final concentration; single wells of triplicate; COS7 membranes with GO2Q alone (control panel)
From the text: Human (A and B) or mouse (C and D) GPR139 were co-transfected with chimeric G-protein GO2Q into COS7 cells. Cell membranes from transfected cells were used in GTPγS binding studies using various ligands at different concentrations to stimulate GPR139. Membranes from COS7 cells transfected by GO2Q were used as the controls (E and F).
(§1) In order identify the ligands for GPR139 two improvements in the detection assay were made to allow for the ligands to be detected. First, we chose to use a GTPγS binding assay instead of using live cultured cells. The GTPγS binding assay is a cell free system that uses the cell membrane of the cell(s) of interest rather than the live cell(s). One advantage of this assay is that potential ligands present in the cell culture media are washed away when the cell membrane is prepared. This reduces the basal level of signal and increase the chance of detecting receptor ligands when assessing compounds that activate the receptor. Second, a GO2Q chimeric G-protein was created to be co-expressed with GPR139 in order to increase the signal-to-noise ratio in the GTPγS binding assay. Historically, the Gi, Go coupled GPCRs offer much greater signal-to-noise ratio in GTPγS binding studies. For Gs and Gq coupled GPCRs, although ligand-stimulated specific signals can be detected in a GTPγS binding assay, the signal-to-noise ratios are often very small. To address this a chimeric GO2-Gq chimeric G-protein, GO2Q, with the N-terminus from Go2 protein and the C-terminus from Gq protein.
(§2) To test for compounds that activate GPR139, different amino acids and their derivatives (Table 2) were tested as ligands in the GTPγS binding assay using cell membranes from COS7 cells co-expressing GPR139 and GO2Q. Cell membrane from COS7 cells expressing GO2Q alone or co-expressing other GPCRs were also tested in GTPγS binding assay in parallel as controls. Each compound was tested in triplicate.

[3] = target: T1, GPR139; test: GTPγS binding assay, membranes from COS7 cells co-expressing GPR139 and GO2Q, single concentration screen; format: biochemical; design: expressed in transfected cells; host or cells: COS7; conditions: 1 mM final concentration; single wells of triplicate; COS7 membranes co-expressing GPR139 and GO2Q
Experimental: as §1, §2

[4] = HEK293, calcium mobilization at 300 μM as percentage of that observed for L-phenylalanine, read-out: % L-phenylalanine at 300 μM (average)
[5] = HEK293, read-out: % L-phenylalanine at 300 μM (average)
[6] = calcium mobilization at 300 μM as percentage of that observed for L-phenylalanine

Row | activation at 300 µM [1, 4] | SMILES | also measured
1 | 114% | N[C@@H](Cc1cccc(F)c1)C(=O)O [3-Fluoro-L-phenylalanine] | 
2 | 135% | N[C@H](Cc1ccc(Cl)cc1Cl)C(=O)O [2,4-Dichloro-D-phenylalanine] | 
3 | 110% | N[C@H](Cc1ccc(Cl)cc1)C(=O)O [4-Chloro-D-phenylalanine] | 
4 | 102% | N[C@H](Cc1cc(F)cc(F)c1)C(=O)O [3,5-Difluoro-D-phenylalanine] | 
5 | 128% | COc1ccc(C[C@H](N)C(=O)O)cc1 [4-Methoxy-L-phenylalanine] | 
6 | 102% | Cc1ccc(C[C@@H](N)C(=O)O)cc1 [4-Methyl-D-phenylalanine] | 
7 | 150% | Cc1cccc(C[C@@H](N)C(=O)O)c1 [3-Methyl-D-phenylalanine] | 
8 | 167% | N[C@@H](Cc1cccc(Br)c1)C(=O)O [3-Bromo-L-phenylalanine] | 
9 | 93% | N#Cc1cccc(C[C@@H](N)C(=O)O)c1 [3-Cyano-D-phenylalanine] | 
10 | 121% | N[C@H](Cc1ccc(F)c(F)c1)C(=O)O [3,4-Difluoro-D-phenylalanine] | 
11 | 134% | Cc1ccccc1C[C@H](N)C(=O)O [2-Methyl-L-phenylalanine] | 
12 | 113% | Cc1ccc(C[C@H](N)C(=O)O)c(C)c1 [2,4-Dimethyl-L-phenylalanine] | 
13 | 146% | N[C@@H](Cc1ccc(Cl)cc1)C(=O)O [4-Chloro-L-phenylalanine] | 
14 | 145% | N[C@@H](Cc1cccc(Cl)c1)C(=O)O [3-Chloro-L-phenylalanine] | 
15 | 122% | N[C@@H](Cc1ccc(Cl)cc1Cl)C(=O)O [2,4-Dichloro-L-phenylalanine] | 
16 | 172% | N[C@H](Cc1cccc(Br)c1)C(=O)O [3-Bromo-D-phenylalanine] | 
17 | 111% | N[C@H](Cc1ccc([N+](=O)[O-])cc1)C(=O)O [4-Nitro-D-phenylalanine] | 
18 | 117% | N[C@H](C(=O)O)C(c1ccccc1)c1ccccc1 [3,3-Diphenyl-L-alanine] | 
19 | 145% | N[C@H](Cc1c(F)c(F)c(F)c(F)c1F)C(=O)O [2,3,4,5,6-Pentafluoro-D-phenylalanine] | 
20 | 94% | N[C@H](Cc1cccc(F)c1)C(=O)O [3-Fluoro-D-phenylalanine] | 
21 | 109% | Cc1ccccc1C[C@@H](N)C(=O)O [2-Methyl-D-phenylalanine] | 
22 | 149% | N[C@@H](Cc1ccc(Cl)c(Cl)c1)C(=O)O [3,4-Dichloro-L-phenylalanine] | 
23 | 133% | N[C@@H](Cc1cccc(C(F)(F)F)c1)C(=O)O [3-Trifluoromethyl-L-phenylalanine] | 
24 | 115% | N#Cc1cccc(C[C@H](N)C(=O)O)c1 [3-Cyano-L-phenylalanine] | 
25 | 132% | N[C@@H](Cc1ccc(F)cc1)C(=O)O [4-Fluoro-L-phenylalanine] | 
26 | 119% | N[C@@H](Cc1ccccc1F)C(=O)O [2-Fluoro-L-phenylalanine] | 

Further lines, the compound ahead of its results:

Row | SMILES | activation at 300 µM [1, 4] | also measured
27 | N[C@@H](Cc1cccc([N+](=O)[O-])c1)C(=O)O [3-Nitro-L-phenylalanine] | 131% | 
28 | N[C@H](Cc1cccc(Cl)c1)C(=O)O [3-Chloro-D-phenylalanine] | 147% | 
29 | CC[C@H](C)[C@H](N)C(=O)O [Ile] |  | Activation levels (GTPγS binding signal), Ct-GO2Q [2]: 2266 and 2222 and 2253; Activation levels of GPR139 (GTPγS binding signal), GPR139-GO2Q [3]: 2760 and 2542 and 2903
30 | Cc1ccc(C[C@H](N)C(=O)O)cc1 [4-Methyl-L-phenylalanine] | 149% | 
31 | Cc1cccc(C[C@H](N)C(=O)O)c1 [3-Methyl-L-phenylalanine] | 147% | 
32 | N[C@H](Cc1cccc([N+](=O)[O-])c1)C(=O)O [3-Nitro-D-Phenylalanine] | 164% | 
33 | N[C@@H](CS)C(=O)O [Cys] |  | Activation levels (GTPγS binding signal), Ct-GO2Q [2]: 1928 and 2132 and 2114; Activation levels of GPR139 (GTPγS binding signal), GPR139-GO2Q [3]: 2168 and 2458 and 2336
34 | C[C@H](N)C(=O)O [Ala] |  | Activation levels (GTPγS binding signal), Ct-GO2Q [2]: 1903 and 2049 and 2139; Activation levels of GPR139 (GTPγS binding signal), GPR139-GO2Q [3]: 2363 and 2348 and 2439
35 | CSCC[C@H](N)C(=O)O [Met] |  | Activation levels (GTPγS binding signal), Ct-GO2Q [2]: 2173 and 2307 and 2276; Activation levels of GPR139 (GTPγS binding signal), GPR139-GO2Q [3]: 2657 and 2829 and 2802
36 | NC(=O)C[C@H](N)C(=O)O [Asn] |  | Activation levels (GTPγS binding signal), Ct-GO2Q [2]: 2195 and 2142 and 2133; Activation levels of GPR139 (GTPγS binding signal), GPR139-GO2Q [3]: 2806 and 2483 and 2547
37 | Cc1ccc(C[C@@H](N)C(=O)O)c(C)c1 [2,4-Dimethyl-D-phenylalanine] | 101% | 
38 | NCC(O)c1ccc(O)cc1 (stereo not shown) [Octopamine] |  | Activation levels (GTPγS binding signal), Ct-GO2Q [2]: 2087 and 2140 and 2142; Activation levels of GPR139 (GTPγS binding signal), GPR139-GO2Q [3]: 2554 and 2675 and 2831
39 | C[C@@H](O)[C@H](N)C(=O)O [Thr] |  | Activation levels (GTPγS binding signal), Ct-GO2Q [2]: 2210 and 2213 and 2008; Activation levels of GPR139 (GTPγS binding signal), GPR139-GO2Q [3]: 2547 and 2507 and 2558
40 | CC(C)C[C@H](N)C(=O)O [Leu] |  | Activation levels (GTPγS binding signal), Ct-GO2Q [2]: 2194 and 2213 and 2167; Activation levels of GPR139 (GTPγS binding signal), GPR139-GO2Q [3]: 2621 and 2544 and 2437
41 | N[C@@H](Cc1ccc(I)cc1)C(=O)O [4-Iodo-L-phenylalanine] | 116% | 
42 | O=C(O)[C@@H]1CCCN1 [Pro] |  | Activation levels (GTPγS binding signal), Ct-GO2Q [2]: 2256 and 2235 and 2329; Activation levels of GPR139 (GTPγS binding signal), GPR139-GO2Q [3]: 2719 and 2657 and 2786
43 | N[C@H](Cc1ccc(I)cc1)C(=O)O [4-Iodo-D-phenylalanine] | 125% | 
44 | N[C@H](Cc1ccc(F)cc1)C(=O)O [4-Fluoro-D-phenylalanine] | 91% | 

Row | SMILES | activation at 300 µM [1, 4] | also measured
45 | CC(C)(C)c1ccc(C[C@H](N)C(=O)O)cc1 [4-tert-Butyl-L-phenylalanine] | 115% | 
46 | N[C@H](CCCc1ccccc1)C(=O)O [D-2-Amino-5-phenyl-pentanoic acid] | 129% | 
47 | N[C@@H](Cc1ccccc1C(F)(F)F)C(=O)O [2-Trifluoromethyl-L-phenylalanine] | 110% | 
48 | N[C@@H](Cc1ccc([N+](=O)[O-])cc1[N+](=O)[O-])C(=O)O [2,4-Dinitro-L-phenylalanine] |  | activation at 300 µM [1, 5]: 95%
49 | O=C(O)[C@@H]1Cc2c([nH]c3ccccc23)CN1 [L-1,2,3,4-tetrahydronorharman-3-carboxylic acid] |  | % L-phenylalanine at 300 μM (average) [1, 6]: 151%
50 | N[C@H](Cc1ccc(Br)s1)C(=O)O [2-(5-bromothienyl)-D-alanine] |  | % L-phenylalanine at 300 μM (average) [1, 6]: 154%
51 | N[C@@H](Cc1ccccc1Br)C(=O)O [2-Bromo-L-phenylalanine] | 168% | 
52 | C[C@](N)(Cc1ccc(F)cc1)C(=O)O [α-methyl-4-Fluoro-L-phenylalanine] | 125% | 
53 | N[C@@H](Cc1ccccc1[N+](=O)[O-])C(=O)O [2-Nitro-L-phenylalanine] | 150% | 
54 | N[C@@H](Cc1ccc(Br)cc1)C(=O)O [4-Bromo-L-phenylalanine] |  | activation at 300 µM [1, 5]: 153%
55 | CC(C)(C)OC(=O)N1Cc2ccccc2C[C@@H]1C(=O)O [(3R)-2-tert-butoxycarbonyl-3,4-dihydro-1H-isoquinoline-3-carboxylic acid] | 155% | 
56 | N[C@@H](Cc1ccc(C(F)(F)F)cc1)C(=O)O [4-Trifluoromethyl-L-phenylalanine] | 150% | 
57 | N[C@H](Cc1ccc(Cl)c(Cl)c1)C(=O)O [3,4-Dichloro-D-phenylalanine] | 149% | 
58 | N[C@H](Cc1ccc(Br)cc1)C(=O)O [4-Bromo-D-phenylalanine] |  | activation at 300 µM [1, 5]: 139%
59 | N[C@H](Cc1ccccc1Br)C(=O)O [2-Bromo-D-phenylalanine] | 135% | 
60 | N[C@@H](Cc1ccc(Br)s1)C(=O)O [2-(5-bromothienyl)-L-alanine] |  | % L-phenylalanine at 300 μM (average) [1, 6]: 151%
61 | N[C@H](CCc1ccccc1)C(=O)O [d-Homo-phenylalanine] |  | % L-phenylalanine at 300 μM (average) [1, 6]: 105%
